# According to article PMC6199309, “A therapeutic approach to pantothenate kinase associated neurodegeneration” (Nature Communications, 2018):
# Assays:
# PIK3CA(E545A) = target: T1, PIK3CA(E545A) (Homo sapiens, UniProt P42336, E545A); experiment: KINOMEscan; type: binding; details: read-out: %Ctrl @ 10000nM
# T1 construct: purchased DiscoverX KINOMEscan
# AKT2 = target: T2, AKT2 (Homo sapiens, UniProt P31751); experiment: KINOMEscan; type: binding; details: read-out: %Ctrl @ 10000nM
# T2 construct: purchased DiscoverX KINOMEscan
# AKT3 = target: T3, AKT3 (Homo sapiens, UniProt Q9Y243); experiment: KINOMEscan; type: binding; details: read-out: %Ctrl @ 10000nM
# T3 construct: purchased DiscoverX KINOMEscan
# MAP4K4 = target: T4, MAP4K4 (Homo sapiens, UniProt O95819); experiment: KINOMEscan; type: binding; details: read-out: %Ctrl @ 10000nM
# T4 construct: purchased DiscoverX KINOMEscan
# BMPR2 = target: T5, BMPR2 (Homo sapiens, UniProt Q13873); experiment: KINOMEscan; type: binding; details: read-out: %Ctrl @ 10000nM
# T5 construct: purchased DiscoverX KINOMEscan
# ERK8 = target: T6, ERK8 (Homo sapiens, UniProt Q8TD08); experiment: KINOMEscan; type: binding; details: read-out: %Ctrl @ 10000nM
# T6 construct: purchased DiscoverX KINOMEscan
# PIK3CD = target: T7, PIK3CD (Homo sapiens, UniProt O00329); experiment: KINOMEscan; type: binding; details: read-out: %Ctrl @ 10000nM
# T7 construct: purchased DiscoverX KINOMEscan
# PIK3CA(I800L) = target: T8, PIK3CA(I800L) (Homo sapiens, UniProt P42336, I800L); experiment: KINOMEscan; type: binding; details: read-out: %Ctrl @ 10000nM
# T8 construct: purchased DiscoverX KINOMEscan
# [1] = target: T9, ABL1(F317I)-phosphorylated (Homo sapiens, UniProt P00519, F317I); experiment: KINOMEscan; type: binding; details: read-out: %Ctrl @ 10000nM
# T9 construct: purchased DiscoverX KINOMEscan
# TNK1 = target: T10, TNK1 (Homo sapiens, UniProt Q13470); experiment: KINOMEscan; type: binding; details: read-out: %Ctrl @ 10000nM
# T10 construct: purchased DiscoverX KINOMEscan
# EGFR(T790M) = target: T11, EGFR(T790M) (Homo sapiens, UniProt P00533, T790M); experiment: KINOMEscan; type: binding; details: read-out: %Ctrl @ 10000nM
# T11 construct: purchased DiscoverX KINOMEscan
# CAMKK2 = target: T12, CAMKK2 (Homo sapiens, UniProt Q96RR4); experiment: KINOMEscan; type: binding; details: read-out: %Ctrl @ 10000nM
# T12 construct: purchased DiscoverX KINOMEscan
# PIK3CA(M1043I) = target: T13, PIK3CA(M1043I) (Homo sapiens, UniProt P42336, M1043I); experiment: KINOMEscan; type: binding; details: read-out: %Ctrl @ 10000nM
# T13 construct: purchased DiscoverX KINOMEscan
# PDPK1 = target: T14, PDPK1 (Homo sapiens, UniProt O15530); experiment: KINOMEscan; type: binding; details: read-out: %Ctrl @ 10000nM
# T14 construct: purchased DiscoverX KINOMEscan
# SYK = target: T15, SYK (Homo sapiens, UniProt P43405); experiment: KINOMEscan; type: binding; details: read-out: %Ctrl @ 10000nM
# T15 construct: purchased DiscoverX KINOMEscan
# PCTK3 = target: T16, PCTK3 (Homo sapiens, UniProt Q07002); experiment: KINOMEscan; type: binding; details: read-out: %Ctrl @ 10000nM
# T16 construct: purchased DiscoverX KINOMEscan
# PCTK1 = target: T17, PCTK1 (Homo sapiens, UniProt Q00536); experiment: KINOMEscan; type: binding; details: read-out: %Ctrl @ 10000nM
# T17 construct: purchased DiscoverX KINOMEscan
# [2] = target: T18, JAK3(JH1domain-catalytic) (Homo sapiens, UniProt P52333); experiment: KINOMEscan; type: binding; details: read-out: %Ctrl @ 10000nM
# T18 construct: JAK3(JH1domain-catalytic); purchased DiscoverX KINOMEscan
# PIK3CA(E542K) = target: T19, PIK3CA(E542K) (Homo sapiens, UniProt P42336, E542K); experiment: KINOMEscan; type: binding; details: read-out: %Ctrl @ 10000nM
# T19 construct: purchased DiscoverX KINOMEscan
# GRK1 = target: T20, GRK1 (Homo sapiens, UniProt Q15835); experiment: KINOMEscan; type: binding; details: read-out: %Ctrl @ 10000nM
# T20 construct: purchased DiscoverX KINOMEscan
# p38-beta = target: T21, p38-beta (Homo sapiens, UniProt Q15759); experiment: KINOMEscan; type: binding; details: read-out: %Ctrl @ 10000nM
# T21 construct: purchased DiscoverX KINOMEscan
# GRK2 = target: T22, GRK2 (Homo sapiens, UniProt P25098); experiment: KINOMEscan; type: binding; details: read-out: %Ctrl @ 10000nM
# T22 construct: purchased DiscoverX KINOMEscan
# TRPM6 = target: T23, TRPM6 (Homo sapiens, UniProt Q9BX84); experiment: KINOMEscan; type: binding; details: read-out: %Ctrl @ 10000nM
# T23 construct: DNA label for qPCR (T7 phage fusion or DNA tag); purchased DiscoverX scanMAX; host or cells: E. coli BL21-derived (T7 phage) or HEK-293
# MAP3K1 = target: T24, MAP3K1 (Homo sapiens, UniProt Q13233); experiment: KINOMEscan; type: binding; details: read-out: %Ctrl @ 10000nM
# T24 construct: purchased DiscoverX KINOMEscan
# MAP4K2 = target: T25, MAP4K2 (Homo sapiens, UniProt Q12851); experiment: KINOMEscan; type: binding; details: read-out: %Ctrl @ 10000nM
# T25 construct: purchased DiscoverX KINOMEscan
# [3] = target: T26, EGFR(L747-E749del, A750P) (Homo sapiens, UniProt P00533, A750P/DEL747-749); experiment: KINOMEscan; type: binding; details: read-out: %Ctrl @ 10000nM
# T26 construct: purchased DiscoverX KINOMEscan
# CSNK1A1 = target: T27, CSNK1A1 (Homo sapiens, UniProt P48729); experiment: KINOMEscan; type: binding; details: read-out: %Ctrl @ 10000nM
# T27 construct: purchased DiscoverX KINOMEscan
# YANK3 = target: T28, YANK3 (Homo sapiens, UniProt Q86UX6); experiment: KINOMEscan; type: binding; details: read-out: %Ctrl @ 10000nM
# T28 construct: purchased DiscoverX scanMAX; host or cells: E. coli BL21-derived host (T7 phage) or HEK-293
# LOK = target: T29, LOK (Homo sapiens, UniProt O94804); experiment: KINOMEscan; type: binding; details: read-out: %Ctrl @ 10000nM
# T29 construct: purchased DiscoverX KINOMEscan
# HUNK = target: T30, HUNK (Homo sapiens, UniProt P57058); experiment: KINOMEscan; type: binding; details: read-out: %Ctrl @ 10000nM
# T30 construct: purchased DiscoverX KINOMEscan
# NIK = target: T31, NIK (Homo sapiens, UniProt Q99558); experiment: KINOMEscan; type: binding; details: read-out: %Ctrl @ 10000nM
# T31 construct: purchased DiscoverX KINOMEscan
# ACVR2B = target: T32, ACVR2B (Homo sapiens, UniProt Q13705); experiment: KINOMEscan; type: binding; details: read-out: %Ctrl @ 10000nM
# T32 construct: purchased DiscoverX KINOMEscan
# NEK3 = target: T33, NEK3 (Homo sapiens, UniProt P51956); experiment: KINOMEscan; type: binding; details: read-out: %Ctrl @ 10000nM
# T33 construct: purchased DiscoverX KINOMEscan
# RET(V804L) = target: T34, RET(V804L) (Homo sapiens, UniProt P07949, V804L); experiment: KINOMEscan; type: binding; details: read-out: %Ctrl @ 10000nM
# T34 construct: purchased DiscoverX KINOMEscan
# PIP5K2B = target: T35, PIP5K2B (Homo sapiens, UniProt P78356); experiment: KINOMEscan; type: binding; details: read-out: %Ctrl @ 10000nM
# T35 construct: purchased DiscoverX KINOMEscan
# EGFR(E746-A750del) = target: T36, EGFR(E746-A750del) (Homo sapiens, UniProt P00533, DEL746-750); experiment: KINOMEscan; type: binding; details: read-out: %Ctrl @ 10000nM
# T36 construct: purchased DiscoverX KINOMEscan
# CDK11 = target: T37, CDK11 (Homo sapiens, UniProt Q9BWU1); experiment: KINOMEscan; type: binding; details: read-out: %Ctrl @ 10000nM
# T37 construct: purchased DiscoverX KINOMEscan
# ARK5 = target: T38, ARK5 (Homo sapiens, UniProt O60285); experiment: KINOMEscan; type: binding; details: read-out: %Ctrl @ 10000nM
# T38 construct: purchased DiscoverX KINOMEscan
# PAMPA-BBB = type: in vitro ADME; details: BBB = Blood Brain Barrier, read-out: PAMPA-BBB, Avg Pe
# YANK2 = target: T39, YANK2 (Homo sapiens, UniProt Q9NY57); experiment: KINOMEscan; type: binding; details: read-out: %Ctrl @ 10000nM
# T39 construct: DNA label for qPCR (T7 phage fusion or DNA tag); purchased DiscoverX scanMAX; host or cells: E. coli BL21-derived (T7 phage) or HEK-293
# T39 sequence (Q9NY57 whole entry, the tested form may be a part): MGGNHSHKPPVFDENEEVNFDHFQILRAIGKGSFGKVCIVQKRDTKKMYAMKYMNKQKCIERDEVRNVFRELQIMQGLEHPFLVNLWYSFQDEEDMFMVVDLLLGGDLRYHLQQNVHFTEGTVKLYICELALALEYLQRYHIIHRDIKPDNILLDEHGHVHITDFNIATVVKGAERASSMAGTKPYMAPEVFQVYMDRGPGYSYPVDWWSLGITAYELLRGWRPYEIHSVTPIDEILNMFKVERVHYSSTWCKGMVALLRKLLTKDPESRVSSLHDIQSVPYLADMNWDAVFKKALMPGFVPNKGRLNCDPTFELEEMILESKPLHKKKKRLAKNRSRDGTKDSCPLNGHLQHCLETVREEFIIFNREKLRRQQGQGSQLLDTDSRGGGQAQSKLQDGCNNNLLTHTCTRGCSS
# T3 sequence (Q9Y243 whole entry): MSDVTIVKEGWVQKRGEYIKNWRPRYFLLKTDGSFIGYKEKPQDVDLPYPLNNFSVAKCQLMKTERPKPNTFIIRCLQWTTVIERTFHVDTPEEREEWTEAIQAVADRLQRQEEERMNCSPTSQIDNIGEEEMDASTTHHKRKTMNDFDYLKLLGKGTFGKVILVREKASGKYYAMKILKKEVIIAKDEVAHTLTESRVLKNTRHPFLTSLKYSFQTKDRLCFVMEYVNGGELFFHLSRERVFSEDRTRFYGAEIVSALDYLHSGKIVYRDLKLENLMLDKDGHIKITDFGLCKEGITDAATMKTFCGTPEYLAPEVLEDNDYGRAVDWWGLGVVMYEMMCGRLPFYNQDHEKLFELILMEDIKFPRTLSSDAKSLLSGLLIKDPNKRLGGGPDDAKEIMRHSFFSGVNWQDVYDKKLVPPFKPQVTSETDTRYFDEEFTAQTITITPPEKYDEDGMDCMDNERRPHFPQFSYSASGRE
# T22 sequence (P25098 whole entry): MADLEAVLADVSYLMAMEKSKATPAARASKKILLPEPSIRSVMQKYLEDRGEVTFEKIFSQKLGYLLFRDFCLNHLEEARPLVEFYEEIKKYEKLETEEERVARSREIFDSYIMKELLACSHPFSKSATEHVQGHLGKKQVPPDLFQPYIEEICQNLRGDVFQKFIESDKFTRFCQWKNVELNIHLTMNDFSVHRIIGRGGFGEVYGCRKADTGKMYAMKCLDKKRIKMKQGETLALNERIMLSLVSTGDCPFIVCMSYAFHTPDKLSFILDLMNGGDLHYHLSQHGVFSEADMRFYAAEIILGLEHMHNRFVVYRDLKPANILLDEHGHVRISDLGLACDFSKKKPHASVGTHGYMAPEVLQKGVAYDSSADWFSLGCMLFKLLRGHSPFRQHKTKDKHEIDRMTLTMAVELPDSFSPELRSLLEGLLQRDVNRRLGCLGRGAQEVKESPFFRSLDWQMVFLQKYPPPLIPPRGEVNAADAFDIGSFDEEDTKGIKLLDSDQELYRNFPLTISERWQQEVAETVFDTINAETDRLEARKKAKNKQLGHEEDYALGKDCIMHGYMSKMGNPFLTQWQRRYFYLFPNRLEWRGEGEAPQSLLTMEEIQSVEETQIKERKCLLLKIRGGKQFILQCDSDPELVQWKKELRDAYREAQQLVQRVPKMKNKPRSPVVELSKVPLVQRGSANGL
# T38 sequence (O60285 whole entry): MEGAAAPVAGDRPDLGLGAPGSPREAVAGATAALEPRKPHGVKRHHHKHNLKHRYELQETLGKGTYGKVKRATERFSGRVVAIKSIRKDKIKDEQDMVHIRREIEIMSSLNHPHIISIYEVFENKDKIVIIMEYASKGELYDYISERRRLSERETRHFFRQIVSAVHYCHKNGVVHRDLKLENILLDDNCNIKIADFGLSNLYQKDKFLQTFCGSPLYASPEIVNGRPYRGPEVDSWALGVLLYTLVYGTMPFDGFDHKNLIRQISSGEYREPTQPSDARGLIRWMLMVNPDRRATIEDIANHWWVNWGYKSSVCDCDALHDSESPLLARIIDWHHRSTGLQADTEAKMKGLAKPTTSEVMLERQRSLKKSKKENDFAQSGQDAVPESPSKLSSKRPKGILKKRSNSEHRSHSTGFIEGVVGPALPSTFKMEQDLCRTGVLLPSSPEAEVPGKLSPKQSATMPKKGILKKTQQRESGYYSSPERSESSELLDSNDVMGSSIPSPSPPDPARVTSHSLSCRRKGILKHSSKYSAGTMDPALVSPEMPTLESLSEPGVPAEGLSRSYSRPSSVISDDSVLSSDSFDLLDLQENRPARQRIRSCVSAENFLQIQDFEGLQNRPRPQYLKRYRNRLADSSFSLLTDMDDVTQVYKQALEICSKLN
# T25 sequence (Q12851 whole entry): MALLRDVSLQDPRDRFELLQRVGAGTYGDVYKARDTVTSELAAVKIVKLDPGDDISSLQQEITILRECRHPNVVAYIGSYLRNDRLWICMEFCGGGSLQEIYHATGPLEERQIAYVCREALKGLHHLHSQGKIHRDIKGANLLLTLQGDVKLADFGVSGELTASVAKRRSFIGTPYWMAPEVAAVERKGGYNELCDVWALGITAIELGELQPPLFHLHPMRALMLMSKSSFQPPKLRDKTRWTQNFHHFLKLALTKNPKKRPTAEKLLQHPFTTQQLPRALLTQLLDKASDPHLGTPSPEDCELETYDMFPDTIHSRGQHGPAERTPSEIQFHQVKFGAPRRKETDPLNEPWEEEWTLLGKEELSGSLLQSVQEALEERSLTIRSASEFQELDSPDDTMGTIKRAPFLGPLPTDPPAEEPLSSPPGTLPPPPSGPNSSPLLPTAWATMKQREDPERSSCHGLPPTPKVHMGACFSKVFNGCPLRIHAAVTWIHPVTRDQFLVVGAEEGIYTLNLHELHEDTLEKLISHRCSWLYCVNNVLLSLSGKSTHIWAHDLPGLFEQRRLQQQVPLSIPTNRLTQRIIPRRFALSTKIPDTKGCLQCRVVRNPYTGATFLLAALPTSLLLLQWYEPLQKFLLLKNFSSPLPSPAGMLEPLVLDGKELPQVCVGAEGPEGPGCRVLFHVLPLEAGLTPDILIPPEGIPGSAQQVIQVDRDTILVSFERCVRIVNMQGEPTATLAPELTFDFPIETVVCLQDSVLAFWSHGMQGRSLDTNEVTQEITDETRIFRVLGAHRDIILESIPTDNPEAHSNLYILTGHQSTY
# T35 sequence (P78356 whole entry): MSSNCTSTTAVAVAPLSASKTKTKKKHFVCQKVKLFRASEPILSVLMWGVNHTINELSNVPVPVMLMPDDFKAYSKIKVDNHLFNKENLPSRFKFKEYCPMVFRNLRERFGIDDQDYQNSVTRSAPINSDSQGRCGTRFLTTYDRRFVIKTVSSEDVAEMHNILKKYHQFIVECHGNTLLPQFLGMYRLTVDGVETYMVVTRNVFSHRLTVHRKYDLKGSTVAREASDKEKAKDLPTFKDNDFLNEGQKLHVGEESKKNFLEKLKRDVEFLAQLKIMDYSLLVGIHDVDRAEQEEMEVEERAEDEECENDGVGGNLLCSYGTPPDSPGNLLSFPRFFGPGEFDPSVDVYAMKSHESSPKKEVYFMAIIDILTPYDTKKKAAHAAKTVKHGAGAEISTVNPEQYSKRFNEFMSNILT
# T11 sequence (P00533 25-1210 T790M): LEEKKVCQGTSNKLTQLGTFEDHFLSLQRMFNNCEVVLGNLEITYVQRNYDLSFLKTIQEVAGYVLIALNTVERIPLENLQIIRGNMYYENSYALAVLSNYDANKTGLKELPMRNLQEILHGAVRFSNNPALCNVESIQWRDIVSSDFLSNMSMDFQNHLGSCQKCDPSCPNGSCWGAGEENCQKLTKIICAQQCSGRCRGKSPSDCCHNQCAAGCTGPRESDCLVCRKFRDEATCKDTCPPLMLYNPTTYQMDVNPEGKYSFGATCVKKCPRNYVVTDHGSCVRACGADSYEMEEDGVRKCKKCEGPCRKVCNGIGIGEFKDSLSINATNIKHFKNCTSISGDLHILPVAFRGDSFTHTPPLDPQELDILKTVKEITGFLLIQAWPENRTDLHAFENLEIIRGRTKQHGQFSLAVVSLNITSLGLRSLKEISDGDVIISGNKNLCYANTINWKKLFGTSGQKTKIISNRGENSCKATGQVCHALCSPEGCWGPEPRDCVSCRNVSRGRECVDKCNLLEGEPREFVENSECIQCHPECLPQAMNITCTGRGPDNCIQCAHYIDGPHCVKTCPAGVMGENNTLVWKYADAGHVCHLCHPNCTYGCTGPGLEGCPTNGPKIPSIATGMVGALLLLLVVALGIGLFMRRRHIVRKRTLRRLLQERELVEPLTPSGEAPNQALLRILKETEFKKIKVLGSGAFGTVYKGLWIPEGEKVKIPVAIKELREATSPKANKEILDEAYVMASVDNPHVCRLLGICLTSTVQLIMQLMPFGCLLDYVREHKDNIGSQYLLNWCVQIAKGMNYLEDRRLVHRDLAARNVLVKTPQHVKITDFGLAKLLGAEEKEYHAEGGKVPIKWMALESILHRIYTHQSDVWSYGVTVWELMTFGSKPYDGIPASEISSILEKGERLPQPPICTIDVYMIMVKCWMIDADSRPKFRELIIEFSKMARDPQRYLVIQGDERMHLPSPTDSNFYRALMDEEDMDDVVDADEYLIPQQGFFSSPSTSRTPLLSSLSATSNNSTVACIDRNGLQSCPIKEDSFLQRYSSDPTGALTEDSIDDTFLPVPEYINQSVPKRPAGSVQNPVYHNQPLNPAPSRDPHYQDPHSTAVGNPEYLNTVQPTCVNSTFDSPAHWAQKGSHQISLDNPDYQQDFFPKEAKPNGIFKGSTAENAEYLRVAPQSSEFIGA
# T18 sequence (P52333 814-1124 limits assumed): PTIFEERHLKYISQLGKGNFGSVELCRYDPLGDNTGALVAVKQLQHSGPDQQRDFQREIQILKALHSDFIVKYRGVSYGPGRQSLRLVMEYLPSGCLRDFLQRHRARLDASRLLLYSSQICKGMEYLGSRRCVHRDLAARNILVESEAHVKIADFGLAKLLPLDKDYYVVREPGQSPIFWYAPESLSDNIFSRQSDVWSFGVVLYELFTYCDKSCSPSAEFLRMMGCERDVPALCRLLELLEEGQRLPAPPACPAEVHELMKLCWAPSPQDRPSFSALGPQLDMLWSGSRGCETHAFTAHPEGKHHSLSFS
structure (smiles),measurement,setting,value
"CC(C)c1ccc(CC(=O)N2CCN(c3ccc(C#N)nn3)CC2)cc1 [PZ-2891, 6-(4-(2-(4-isopropylphenyl)acetyl)piperazin-1-yl)pyridazine-3-carbonitrile]",remaining binding at 10 µM,PIK3CA(E545A),64%
same,remaining binding at 10 µM,AKT2,85%
same,remaining binding at 10 µM,AKT3,82%
same,remaining binding at 10 µM,MAP4K4,100%
same,remaining binding at 10 µM,BMPR2,87%
same,remaining binding at 10 µM,ERK8,81%
same,remaining binding at 10 µM,PIK3CD,89%
same,remaining binding at 10 µM,PIK3CA(I800L),42%
same,remaining binding at 10 µM,[1],89%
same,remaining binding at 10 µM,TNK1,100%
same,remaining binding at 10 µM,EGFR(T790M),78%
same,remaining binding at 10 µM,CAMKK2,87%
same,remaining binding at 10 µM,PIK3CA(M1043I),74%
same,remaining binding at 10 µM,PDPK1,75%
same,remaining binding at 10 µM,SYK,82%
same,remaining binding at 10 µM,PCTK3,92%
same,remaining binding at 10 µM,PCTK1,76%
same,remaining binding at 10 µM,[2],94%
same,remaining binding at 10 µM,PIK3CA(E542K),64%
same,remaining binding at 10 µM,GRK1,72%
same,remaining binding at 10 µM,p38-beta,96%
same,remaining binding at 10 µM,GRK2,56%
same,remaining binding at 10 µM,TRPM6,98%
same,remaining binding at 10 µM,MAP3K1,89%
same,remaining binding at 10 µM,MAP4K2,77%
same,remaining binding at 10 µM,[3],72%
same,remaining binding at 10 µM,CSNK1A1,66%
same,remaining binding at 10 µM,YANK3,84%
same,remaining binding at 10 µM,LOK,86%
same,remaining binding at 10 µM,HUNK,100%
same,remaining binding at 10 µM,NIK,100%
same,remaining binding at 10 µM,ACVR2B,100%
same,remaining binding at 10 µM,NEK3,69%
same,remaining binding at 10 µM,RET(V804L),96%
same,remaining binding at 10 µM,PIP5K2B,88%
same,remaining binding at 10 µM,EGFR(E746-A750del),100%
same,remaining binding at 10 µM,CDK11,78%
same,remaining binding at 10 µM,ARK5,94%
same,Papp,PAMPA-BBB,52 ×10⁻⁶ cm/s
same,remaining binding at 10 µM,YANK2,100%
